The assay in a line: Modulation of human utrophinA expressed in mouse H2K cells assessed as upregulation of utrophin production after 24 hrs by luciferase reporter gene assay. On the technique in general: Reporter assays use an easily measured gene product as a stand-in for the process of interest.

Experimental findings from BindingDB's records for doi:10.1021/acs.jmedchem.0c00807 (University of Oxford, 2020) are described below.

As for `CC(=O)Nc1ccc2oc(-c3ccc4ccccc4c3)nc2c1`, the EC50 (usually the midpoint of the concentration-response curve) came out at 10 nM.
Next, `CC(C)C(=O)Nc1ccc2oc(-c3ccc4ccccc4c3)nc2c1`: 38 nM; `O=S1(=O)CCCN1c1ccc2oc(-c3ccc4ccccc4c3)nc2c1`: 110 nM; `CNS(=O)(=O)c1ccc2oc(-c3ccc4ccccc4c3)nc2c1`: 146 nM.
Next, `CCP(=O)(OC)c1ccc2oc(-c3ccc4ccccc4c3)nc2c1` (stereo not given): 4 nM; `CCP(=O)(OC)c1ccc2nc(-c3ccc4ccccc4c3)oc2c1` (stereo not given): 71 nM.
Next, `CCOP(=O)(CC)c1ccc2oc(-c3ccc4ccccc4c3)nc2c1` (stereo not given): 26 nM; `CCOP(=O)(CC)c1ccc2nc(-c3ccc4ccccc4c3)oc2c1` (stereo not given): 108 nM; `COP(=O)(c1ccc2oc(-c3ccc4ccccc4c3)nc2c1)C(C)C` (stereo not given): 34 nM.
For `COP(=O)(c1ccc2nc(-c3ccc4ccccc4c3)oc2c1)C(C)C` (stereo not given), the 50% effective concentration (EC50) was determined as 234 nM.
Next, `COP(=O)(c1ccc2oc(-c3ccc4ccccc4c3)nc2c1)C(C)(C)C` (stereo not given): 148 nM.
Next, `CCP(=O)(OC)c1ccc2oc(-c3cnc4ccccc4c3)nc2c1` (stereo not given): 62 nM.
`CCP(=O)(OC)c1ccc2oc(-c3ccc4ncccc4c3)nc2c1` (stereo not given): the EC50 came to 164 nM.
Next, `CCP(=O)(OC)c1ccc2oc(-c3ccc4cccnc4c3)nc2c1` (stereo not given): 157 nM; `CCP(=O)(OC)c1ccc2oc(-c3ccc4ccncc4c3)nc2c1` (stereo not given): 332 nM.
Turning to `CCP(=O)(OC)c1ccc2oc(-c3ccc4cnccc4c3)nc2c1` (stereo not given), the EC50 worked out at 1140 nM.
Next, `CCP(=O)(OC)c1ccc2nc(-c3cnc4ccccc4c3)oc2c1` (stereo not given): 71 nM.
Next, `CCP(=O)(OC)c1ccc2nc(-c3ccc4ncccc4c3)oc2c1` (stereo not given): 85 nM; `CCP(=O)(OC)c1ccc2nc(-c3ccc4cccnc4c3)oc2c1` (stereo not given): 928 nM; `CCP(=O)(OC)c1ccc2nc(-c3ccc4ccncc4c3)oc2c1` (stereo not given): 1140 nM.
Next, `CCP(=O)(OC)c1ccc2nc(-c3ccc4cnccc4c3)oc2c1` (stereo not given): 1760 nM; `CCP(=O)(OC)c1ccc2oc(/C=C/c3ccccc3)nc2c1` (stereo not given): 163 nM; `CCP(=O)(OC)c1ccc2oc(-c3ccc(Cl)cc3)nc2c1` (stereo not given): 112 nM.
Regarding `CCP(=O)(OC)c1ccc2oc(-c3cccc(F)c3)nc2c1` (stereo not given), the EC50 came out at 823 nM.
For the compound `CCP(=O)(OC)c1ccc2oc(-c3ccc(C(F)(F)F)cc3)nc2c1` (stereo not given), the EC50 turned out to be 548 nM.
Next, `CCP(=O)(OC)c1ccc2oc(-c3ccccc3C(F)(F)F)nc2c1` (stereo not given): 861 nM; `CCP(=O)(OC)c1ccc2oc(-c3ccc(F)cc3F)nc2c1` (stereo not given): 777 nM; `CCP(=O)(OC)c1ccc2oc(-c3cccc(Cl)c3F)nc2c1` (stereo not given): 198 nM.
For the compound `CCP(=O)(OC)c1ccc2oc(-c3ccc(Cl)c(Cl)c3)nc2c1` (stereo not given), the EC50 is 118 nM.
Next, `CCP(=O)(OC)c1ccc2oc(-c3cccc(Cl)c3Cl)nc2c1` (stereo not given): 244 nM; `CCP(=O)(OC)c1ccc2oc(-c3c(F)ccc(Cl)c3F)nc2c1` (stereo not given): 1770 nM.
Next, `CCP(=O)(OC)c1ccc2oc(-c3ccc(Cl)s3)nc2c1` (stereo not given): 168 nM; `CCP(=O)(OC)c1ccc2oc(-c3sccc3Cl)nc2c1` (stereo not given): 1510 nM.
`CCP(=O)(OC)c1ccc2oc(-c3ccc(C(F)(F)F)o3)nc2c1` (stereo not given): the EC50 worked out at 1770 nM.
Next, `CCP(=O)(OC)c1ccc2nc(/C=C/c3ccccc3)oc2c1` (stereo not given): 766 nM.
Next, `CCP(=O)(OC)c1ccc2nc(-c3ccc(F)cc3)oc2c1` (stereo not given): 1230 nM; `CCP(=O)(OC)c1ccc2nc(-c3cccc(F)c3)oc2c1` (stereo not given): 2250 nM.
Next, `CCP(=O)(OC)c1ccc2nc(-c3ccc(F)cc3F)oc2c1` (stereo not given): 1760 nM; `CCP(=O)(OC)c1ccc2nc(-c3cccc(Cl)c3Cl)oc2c1` (stereo not given): 1950 nM.
Turning to `COP(=O)(c1ccc2oc(-c3ccc(F)cc3)nc2c1)C(C)C` (stereo not given), the EC50 was determined as 303 nM.
Next, `COP(=O)(c1ccccc1)c1ccc2oc(-c3ccc(F)cc3)nc2c1` (stereo not given): 826 nM.
Next, `CCOP(=O)(CC)c1ccc2oc(-c3ccc(F)cc3)nc2c1` (stereo not given): 1250 nM; `COP(=O)(c1ccc2nc(-c3ccc(F)cc3)oc2c1)C(C)C` (stereo not given): 1510 nM.
Next, `CCP(=O)(OC)c1cccc2oc(-c3ccc(F)cc3)nc12` (stereo not given): 1190 nM; `CCS(=O)(=O)c1ccc2oc(-c3ccc4ccccc4c3)nc2c1` [BMN 195]: 187 nM.
